Experimental data taken from PubChem BioAssay AID180 (DTP/NCI, 2004).
Where “and” joins values, the source holds several entries; their conditions need not be identical. Equal entries are not always repeated.

Test system: BDF1 mice, Adenocarcinoma 755 s.c., tumor weight T/C
Assay: NCI In Vivo Anticancer Drug Screen. Data for tumor model Adenocarcinoma 755 (subcutaneous) in B6D2F1 (BDF1) mice
Details: endpoint: mean tumor weight, higher = larger tumour
Outline: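 Tumor-bearing mice receive test compound while controls get vehicle alone. Antitumor effect is scored from survival or tumor dimensions as a T/C quotient.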

[1] = dose: 10.0 mg/kg/injection, schedule: Q01DX011 (ip), vehicle: methylcellulose (MC)
[2] = dose: 20.0 mg/kg/injection, schedule: Q01DX011 (ip), vehicle: methylcellulose (MC)
[3] = dose: 62.5 mg/kg/injection, schedule: Q01DX011 (ip), vehicle: methylcellulose (MC)
[4] = dose: 125.0 mg/kg/injection, schedule: Q01DX011 (ip), vehicle: methylcellulose (MC)
[5] = dose: 10.0 mg/kg/injection, schedule: Q01DX011 (ip), vehicle: carboxymethylcellulose (CMC)
[6] = dose: 20.0 mg/kg/injection, schedule: Q01DX011 (ip), vehicle: carboxymethylcellulose (CMC)
[7] = dose: 40.0 mg/kg/injection, schedule: Q01DX011 (ip), vehicle: carboxymethylcellulose (CMC)
[8] = dose: 80.0 mg/kg/injection, schedule: Q01DX011 (ip), vehicle: carboxymethylcellulose (CMC)
[9] = dose: 12.5 mg/kg/injection, schedule: Q01DX011 (ip), vehicle: methylcellulose (MC)
[10] = dose: 25.0 mg/kg/injection, schedule: Q01DX011 (ip), vehicle: methylcellulose (MC)

CC[C@]1(O)C[C@H]2CN(CCc3c([nH]c4ccccc34)[C@@](C(=O)OC)(c3cc4c(cc3OC)N(C=O)[C@H]3[C@@](O)(C(=O)OC)[C@H](OC(C)=O)[C@]5(CC)C=CCN6CC[C@]43[C@@H]65)C2)C1 was tested, and the T/C (dose: 0.06 mg/kg/injection, schedule: Q01DX011 (ip), vehicle: saline) was 95 % of control, the T/C (dose: 0.12 mg/kg/injection, schedule: Q01DX011 (ip), vehicle: saline) was 173 % of control and the T/C (dose: 0.25 mg/kg/injection, schedule: Q01DX011 (ip), vehicle: saline) was 54 % of control.

With OCCN1CCN(CC/C=C2/c3ccccc3Sc3ccc(Cl)cc32)CC1 the T/C (dose: 2.5 mg/kg/injection, schedule: Q01DX011 (ip), vehicle: methylcellulose (MC)) was 90 % of control and 88 % of control, the T/C (dose: 5.0 mg/kg/injection, schedule: Q01DX011 (ip), vehicle: methylcellulose (MC)) was 40 % of control and 42 % of control and the T/C [1] was 32 % of control. The T/C [2] was 17 % of control.

With CCN(CC)CCOc1ccc(/C=N/Nc2nc3c(c(=O)n(C)c(=O)n3C)n2C)cc1 the T/C (dose: 30.0 mg/kg/injection, schedule: Q01DX011 (ip), vehicle: carboxymethylcellulose (CMC)) was 94 % of control, the T/C (dose: 60.0 mg/kg/injection, schedule: Q01DX011 (ip), vehicle: carboxymethylcellulose (CMC)) was 113 % of control and the T/C (dose: 240.0 mg/kg/injection, schedule: Q01DX011 (ip), vehicle: carboxymethylcellulose (CMC)) was 102 % of control and 124 % of control.

In the case of NC(=O)c1n[nH]nc1N=Nc1c(O)ccc2ccccc12, the T/C (dose: 16.0 mg/kg/injection, schedule: Q01DX011 (ip), vehicle: carboxymethylcellulose (CMC)) is reported as 85 % of control, the T/C (dose: 31.0 mg/kg/injection, schedule: Q01DX011 (ip), vehicle: carboxymethylcellulose (CMC)) is reported as 120 % of control and the T/C (dose: 62.0 mg/kg/injection, schedule: Q01DX011 (ip), vehicle: carboxymethylcellulose (CMC)) is reported as 204 % of control.

CN(C)C1C(=O)C(C(N)=O)=C(O)C2(O)C(=O)C3=C(O)c4c(O)cccc4C(C)(O)C3C(O)C12 (stereo not drawn) was tested, and the T/C (dose: 19.5 mg/kg/injection, schedule: Q01DX011 (ip), vehicle: carboxymethylcellulose (CMC)) was 78 % of control, the T/C (dose: 19.86 mg/kg/injection, schedule: Q01DX011 (ip), vehicle: carboxymethylcellulose (CMC)) was 106 % of control and the T/C (dose: 31.25 mg/kg/injection, schedule: Q01DX011 (ip), vehicle: methylcellulose (MC)) was 117 % of control. For the same molecule, the T/C (dose: 39.0 mg/kg/injection, schedule: Q01DX011 (ip), vehicle: carboxymethylcellulose (CMC)) was 91 % of control, the T/C (dose: 50.0 mg/kg/injection, schedule: Q01DX011 (ip), vehicle: water) was 81 % of control and the T/C (dose: 62.4 mg/kg/injection, schedule: Q01DX011 (ip), vehicle: carboxymethylcellulose (CMC)) was 46 % of control. The T/C [3] was 69 % of control, the T/C (dose: 63.56 mg/kg/injection, schedule: Q01DX011 (ip), vehicle: carboxymethylcellulose (CMC)) was 119 % of control and the T/C (dose: 78.0 mg/kg/injection, schedule: Q01DX011 (ip), vehicle: carboxymethylcellulose (CMC)) was 95 % of control and 110 % of control. For the same molecule, the T/C (dose: 79.45 mg/kg/injection, schedule: Q01DX011 (ip), vehicle: carboxymethylcellulose (CMC)) was 92 % of control and 75 % of control and 87 % of control, the T/C (dose: 100.0 mg/kg/injection, schedule: Q01DX011 (ip), vehicle: water) was 45 % of control and the T/C (dose: 104.0 mg/kg/injection, schedule: Q01DX011 (ip), vehicle: carboxymethylcellulose (CMC)) was 65 % of control. For the same molecule, the T/C (dose: 105.93 mg/kg/injection, schedule: Q01DX011 (ip), vehicle: carboxymethylcellulose (CMC)) was 96 % of control and 87 % of control, the T/C [4] was 73 % of control and the T/C (dose: 150.0 mg/kg/injection, schedule: Q01DX011 (ip), vehicle: water) was 14 % of control.

With Cc1cc(=O)c2c(C)cccc2[nH]1 the T/C [5] was 112 % of control, the T/C [1] was 60 % of control and the T/C [6] was 105 % of control. For the same molecule, the T/C [2] was 59 % of control, the T/C [7] was 86 % of control and the T/C (dose: 40.0 mg/kg/injection, schedule: Q01DX011 (ip), vehicle: methylcellulose (MC)) was 72 % of control. For the same molecule, the T/C [8] was 58 % of control and 60 % of control and 75 % of control, the T/C (dose: 80.0 mg/kg/injection, schedule: Q01DX011 (ip), vehicle: methylcellulose (MC)) was 57 % of control and the T/C (dose: 160.0 mg/kg/injection, schedule: Q01DX011 (ip), vehicle: carboxymethylcellulose (CMC)) was 106 % of control. The T/C (dose: 320.0 mg/kg/injection, schedule: Q01DX011 (ip), vehicle: carboxymethylcellulose (CMC)) was 106 % of control.

For OB(O)O, the T/C (dose: 500.0 mg/kg/injection, schedule: Q#A X022 (oral), vehicle: water) was 39 % of control and 45 % of control, the T/C (dose: 750.0 mg/kg/injection, schedule: Q#A X022 (oral), vehicle: water) was 16 % of control and the T/C (dose: 1000.0 mg/kg/injection, schedule: Q#A X022 (oral), vehicle: water) was 9 % of control.

With CCCn1cnc2c(SCc3ccccc3Cl)nc(N)nc21 the T/C (dose: 0.78 mg/kg/injection, schedule: Q01DX011 (ip), vehicle: methylcellulose (MC)) was 85 % of control, the T/C (dose: 1.56 mg/kg/injection, schedule: Q01DX011 (ip), vehicle: methylcellulose (MC)) was 72 % of control and the T/C (dose: 3.0 mg/kg/injection, schedule: Q01DX011 (ip), vehicle: carboxymethylcellulose (CMC)) was 70 % of control. The T/C (dose: 3.12 mg/kg/injection, schedule: Q01DX011 (ip), vehicle: methylcellulose (MC)) was 62 % of control, the T/C (dose: 6.0 mg/kg/injection, schedule: Q01DX011 (ip), vehicle: carboxymethylcellulose (CMC)) was 47 % of control and the T/C (dose: 6.25 mg/kg/injection, schedule: Q01DX011 (ip), vehicle: methylcellulose (MC)) was 60 % of control. For the same molecule, the T/C (dose: 12.0 mg/kg/injection, schedule: Q01DX011 (ip), vehicle: carboxymethylcellulose (CMC)) was 45 % of control, the T/C [9] was 43 % of control and the T/C (dose: 24.0 mg/kg/injection, schedule: Q01DX011 (ip), vehicle: carboxymethylcellulose (CMC)) was 17 % of control. For the same molecule, the T/C [10] was 7 % of control, the T/C (dose: 48.0 mg/kg/injection, schedule: Q01DX011 (ip), vehicle: carboxymethylcellulose (CMC)) was 4 % of control and the T/C (dose: 96.0 mg/kg/injection, schedule: Q01DX011 (ip), vehicle: carboxymethylcellulose (CMC)) was 2 % of control. For the same molecule, the T/C (dose: 190.0 mg/kg/injection, schedule: Q01DX011 (ip), vehicle: carboxymethylcellulose (CMC)) was 3 % of control, the T/C (dose: 192.0 mg/kg/injection, schedule: Q01DX011 (ip), vehicle: carboxymethylcellulose (CMC)) was 1 % of control and the T/C (dose: 380.0 mg/kg/injection, schedule: Q01DX011 (ip), vehicle: carboxymethylcellulose (CMC)) was 4 % of control.

CCCCn1cnc2c(SCc3ccccc3Cl)nc(N)nc21 was tested, and the T/C [3] was 24 % of control, the T/C [4] was 13 % of control and the T/C (dose: 250.0 mg/kg/injection, schedule: Q01DX011 (ip), vehicle: methylcellulose (MC)) was 5 % of control.

With Fc1ccccc1CSc1ncnc2c1ncn2C1CCCO1 (stereo not drawn) the T/C (dose: 3.4 mg/kg/injection, schedule: Q01DX011 (ip), vehicle: methylcellulose (MC)) was 82 % of control, the T/C (dose: 6.75 mg/kg/injection, schedule: Q01DX011 (ip), vehicle: methylcellulose (MC)) was 96 % of control and the T/C [9] was 26 % of control. The T/C [10] was 1 % of control and 15 % of control and the T/C (dose: 50.0 mg/kg/injection, schedule: Q01DX011 (ip), vehicle: methylcellulose (MC)) was 1 % of control.

O=C(O)C(O)C(O)C(O)C(O)CO.O=C(O)C(O)C(O)C(O)C(O)CO.O=C(O)C(O)C(O)C(O)C(O)CO.[Ga] (stereo not drawn) was tested, and the T/C [5] was 72 % of control, the T/C [6] was 64 % of control and the T/C [7] was 25 % of control. For the same molecule, the T/C [8] was 10 % of control.
